Test systems include SK-MEL-5; UACC-62; Malme-3M; CAKI-1; LOX IMVI; K562; U-251; OVCAR-3; TK-10; NCI-H23; NCI-H460; HCT-15; SF-295; SF-539; SK-MEL-28; MOLT-4; SNB-19; CCRF-CEM; SF-268; SK-MEL-2.
Holding throughout (experiment): growth of human tumour cells (NCI), 48 h

Structures are written as SMILES.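 Method: 48-hour compound exposure of cells in 96-well plates, five concentrations, linear interpolation of endpoints. GI50: concentration for 50% inhibition of growth.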 Active and inactive are the calls of the source. No stated cut-off is given here; in the data, active = GI50 up to about 1.1 µM and inactive = higher. Where only a bound is given, the exact number is not on record here.

`COc1cc(/C=N\O)cc(/C=N/O)c1O`: the GI50 in the experiment on SK-MEL-5 was 40 µM (inactive); in the experiment with UACC-62, 68.1 µM (inactive); in the experiment with Malme-3M, 27.7 µM (inactive); in the experiment with CAKI-1, 28.6 µM (inactive); in the experiment on LOX IMVI, 40.9 µM (inactive); with K562, 71.9 µM (inactive). Moreover, the GI50 in the experiment on U-251 is 37.9 µM (inactive); in the experiment with OVCAR-3, 63 µM (inactive); with TK-10 it was > 100 µM (inactive); in the experiment on NCI-H23, > 100 µM (inactive); in the experiment on NCI-H460, 40.2 µM (inactive); with HCT-15, above 100 µM. Further, the GI50 is 17.1 µM (inactive) in the experiment on SF-295; 24.4 µM (inactive) with SF-539; 38.5 µM (inactive) in the experiment on SK-MEL-28; 25.7 µM (inactive) with MOLT-4; 47.6 µM (inactive) with SNB-19; 12.1 µM (inactive) in the experiment on CCRF-CEM. The GI50 with SF-268 is 35.7 µM (inactive); with SK-MEL-2 it was 25.8 µM (inactive).

On to `N#Cc1c(-c2ccc([N+](=O)[O-])cc2)cc(-c2ccc(Nc3ccnc4cc(C(F)(F)F)ccc34)cc2)nc1N`, for which the GI50 is 25.5 µM (inactive) in the experiment with SK-MEL-5; 62.4 µM (inactive) in the experiment with UACC-62; 30.3 µM (inactive) in the experiment with Malme-3M; 18.5 µM (inactive) with CAKI-1; 3.64 µM (inactive) in the experiment on LOX IMVI; 3.64 µM (inactive) with K562. Also, the GI50 is 6.34 µM (inactive) in the experiment on U-251; 12.9 µM (inactive) in the experiment on OVCAR-3; > 48.2 µM (inactive) in the experiment on TK-10; 23.2 µM (inactive) in the experiment with NCI-H23; 11.9 µM (inactive) in the experiment with NCI-H460; 5.96 µM with HCT-15. Also, the GI50 is 15.9 µM (inactive) in the experiment on SF-295; 26.9 µM (inactive) in the experiment with SF-539; 25.5 µM (inactive) in the experiment on SK-MEL-28; 4.34 µM (inactive) in the experiment on MOLT-4; 18.6 µM (inactive) with SNB-19; 1.88 µM (inactive) in the experiment on CCRF-CEM. Moreover, the GI50 with SF-268 is 33 µM (inactive); in the experiment on SK-MEL-2, > 41.3 µM (inactive).

In the case of `COc1cc2c(cc1OC)C(Cl)C(c1ccc(Cl)c(Cl)c1)=C2Cl` (stereo not given), the GI50 was 5.94 µM (inactive) in the experiment with SK-MEL-5; 4.37 µM (inactive) in the experiment with UACC-62; 12.6 µM (inactive) in the experiment on Malme-3M; 11.2 µM (inactive) with CAKI-1; 2.24 µM (inactive) in the experiment with LOX IMVI; 3.22 µM (inactive) in the experiment with K562. Further, the GI50 with U-251 was 4.71 µM (inactive); in the experiment on OVCAR-3, 4.18 µM (inactive); in the experiment with TK-10, 20.7 µM (inactive); in the experiment on NCI-H23, 44.6 µM (inactive); in the experiment with NCI-H460 it was 4.09 µM (inactive); in the experiment with HCT-15, 3.33 µM. In addition, the GI50 is 9.82 µM (inactive) with SF-295; 10.3 µM (inactive) in the experiment on SF-539; 12 µM (inactive) in the experiment with SK-MEL-28; 2.92 µM (inactive) in the experiment with MOLT-4; 15.6 µM (inactive) in the experiment on SNB-19; 3.02 µM (inactive) in the experiment with CCRF-CEM. In addition, the GI50 in the experiment on SF-268 is 6.21 µM (inactive); with SK-MEL-2, 6.84 µM (inactive).

As to `C[C@]12Cc3cn[nH]c3C(=O)C1CC[C@@H]1C2CC[C@@]2(C)C1CC[C@]2(C)O` (stereo not given in full), the GI50 in the experiment with SK-MEL-5, with UACC-62, in the experiment on Malme-3M, in the experiment on CAKI-1, with LOX IMVI and in the experiment with K562 was > 100 µM (inactive) throughout. Besides, the GI50 in the experiment with U-251 was > 100 µM (inactive); in the experiment with OVCAR-3, > 100 µM (inactive); in the experiment with TK-10, > 100 µM (inactive); in the experiment on NCI-H23 it was > 100 µM (inactive); with NCI-H460 it was > 100 µM (inactive); in the experiment on HCT-15, above 100 µM. In addition, the GI50 is > 100 µM (inactive) in the experiment with SF-295; 84.5 µM (inactive) in the experiment on SF-539; > 100 µM (inactive) with SK-MEL-28; > 100 µM (inactive) with MOLT-4; > 100 µM (inactive) in the experiment on SNB-19; > 100 µM (inactive) in the experiment with CCRF-CEM. The GI50 in the experiment with SF-268 and in the experiment with SK-MEL-2 was > 100 µM (inactive) each time.

The values above are taken from ChEMBL document CHEMBL1201862, “PubChem BioAssay data set” (2004).
